# According to patent publication US12075776B2, “Synthetic lures” (VICTORIA LINK LIMITED, priority 2016, dated 2024):
# Columns and labels:
# Assay type in all cases: in vivo
# wild, free-ranging rats [1] = test: Field trials of single-compound synthetic lures in tracking tunnels (tracking rate); conditions: for attractiveness relative to peanut butter standard and control (aggregated tracking rate): tracking rate aggregated for all seven concentrations 10,000 to 0.01 ppm in fractionated coconut oil, one night, FIG. 2
# Protocol: Synthetic lures comprising a single compound mixed in a carrier medium (fractionated coconut oil) were presented to wild, free-ranging rats at 7 concentrations, decreasing in orders of magnitude from 10,000 ppm to 0.01 ppm. The compounds and concentrations used are set out in Table 2. Lures were presented in 1.7 mL Eppendorf microtubes secured to the inside wall of tracking tunnels using a cable tie. Inked cards were placed in each tunnel to quantify the visitation and identity of species visiting lures. Lures were randomly assigned along transects, with a minimum 25-m spacing between lures and with transects separated by 200 m. A control (fractionated coconut oil only) and standard (peanut butter) were assigned to each transect, with each transect comprising of lures presented at the same concentration. The order of transects was randomised for each trial. All lures were left in situ for one rain-free night. Lures were scored using the presence of rat tracks on inked cards to provide a proportion of inked cards receiving a visit for each lure, hereafter termed the “tracking rate”. Binomial tests were used to compare the tracking rate of each individual lure against peanut butter at the end of the trial period. Binomial tests were run in R (R Core Team 2013). Ten trials were undertaken at independent sites across the Wainuiomata and Orongorongo catchment region and within the Akatarawa and Pakuratahi Forest Parks, Wellington region (41° 15S, 175° 00E), New Zealand between 15 Jul. 2015 and 11 Nov. 2015.
# wild, free-ranging rats [2] = test: Model selection / model averaging of blend-trial response variables (Visitation, Contact, Marking, Intensity); conditions: for relative importance of variable (model averaging), Contact: response variable Contact (chew or bite marks); for relative importance of variable (model averaging), Marking: response variable Marking (urination and/or faecal marking); for relative importance of variable (model averaging), Visitation: response variable Visitation (tracking), presence/absence of compound in lure as predictor
# Source text: (§1) Trials were designed to compare the performance of each lure relative to the best performing lure after each successive trial phase. The elimination of poorer performing lures allowed for higher levels of internal replication and the inclusion of additional multi-component blend lures to Phase Two. Lures were scored using the presence/absence of rat tracks on inked tracking cards to provide a proportion of tracking cards receiving species-specific visitations and hereafter termed the ‘tracking rate’. The tracking rate was used to direct the elimination process. Lures that were statistically less attractive than the best performing lure after Phase One trials were eliminated from subsequent trials. Three behavioural response variables were scored that were designed to quantify the strength of the visit to the respective lure: (1) the presence of urination and/or faecal marking in or on the tracking tunnel and hereafter termed ‘Marking’; (2) the presence of chew or bite marks on the microtube and/or tracking tunnel and hereafter termed ‘Contact’ and; (3) the amount of footprints on each tracking card that received a visitation. This was measured using a 10 cm×47 cm Perspex sheet with a grid made up of 1 cm^2 squares. The number of squares with species-specific tracks was calculated to provide a score, hereafter termed ‘Intensity’. Intensity was designed to identify lures that generated intensive or multiple visits by an individual or that elicited visits from multiple individuals.
# A multi-model information-theoretic approach was used at the end of Phase Two to identify the models of best fit for each of the four response variables (Tracking, Marking, Contact and Intensity) and to investigate possible synergistic effects between compounds used in multi-component blends. Data for each lure comprising one or any combination of A6, B6, C6, F7 and/or 17 were collated. Model averaging was used to identify each compounds relative importance to each response variable.
# Binomial tests were used to compare the performance of each lure to the best performing lure at the end of each in-field trial phase and drive the process. Tracking, Marking and Contact models were run as generalised linear mixed-effects models (GLMM) with a binomial distribution and logit link and a linear mixed-effects model (LMM) for Intensity. The presence/absence of compounds in each lure were used as predictor variables.
# A ‘Global’ model was firstly generated containing all fixed-effect parameters, with ‘Site’ and/or ‘Transect’ and/or ‘Trial Phase” included as random effects. This allowed for the examination of both spatial (Site and Transect) and temporal (Trial Phase) impacts on the data. ‘Transect’ nested within ‘Site’ and ‘Trial Phase’ provided an improved model fit compared to any other random effect model, therefore all models were run with the inclusion of ‘Transect’ nested within ‘Site’ and ‘Trial Phase” as random effects. Akaike's information criterion corrected for small sample size (AICc) was used to compare models. Corresponding Akaike differences (Δi), the number of parameters (K), Akaike weights (Wi) and log-likelihoods (LL) were also calculated. As the model set was not balanced i.e., there were not equal numbers of models for each variable a cut-off of 10AICC was used (Bolker et al. 2009) to create the model averaging candidate model-sets from the relative importance of variables were derived. Correlations between the response variables used in linear regression models were examined using Dice's similarity coefficient (QS) due to the binary nature of three of the four variables (Choi et al. 2010).
# Statistical significance was assumed wherever P≤0.05. All statistical analysis was run in R (R Core Team 2016), with package Ime4 (Bates et al. 2015) used for mixed-effects models and MuMIn (Barton 2016) used for AICc scores, weights, deltas, log-likelihoods and model averaging (using the dredge function).
# wild, free-ranging rats [3] = test: as above; conditions: response variable Intensity (footprint squares); Phase removed as random effect
# wild, free-ranging rats [4] = test: Blend trials (Phase One and Phase Two) of single and multi-component lures in tracking tunnels; conditions: Phase One; for performance versus top performing lure CF (binomial test): P<0.03
# Source text: Lure preparation and presentation methods followed those outlined above.
# For Phase One, A6, B6, C6, F7 and 17 identified as in Table 2 were presented. For example, A6 and B6 were blended together in equal parts to make a dyad lure coded AB. Each trial consisted of a single spatially stratified transect. Each strata contained one of each lure, a control (FCO) and the standard (peanut butter). The number of transect strata varied between trials according to site conditions i.e., track length and accessibility. Lures were spaced at 50 m, with the order of lures randomised within transect strata and between each trial. All lures were left in situ for two rain-free night. Ten trials were undertaken at independent sites across the Greater Wellington region and Richmond Range, Nelson, New Zealand between 11 Nov. 2015 and 25 Feb. 2016.
# For Phase Two, the best performing single and dyad lures identified after Phase One were presented. In addition, all possible triad, tetrad and pentad blend combinations of A, B, C, F and I were created and trialled. […]
# as §1, with “The elimination of poorer performing lures allowed for higher levels of internal replication and the inclusion of additional multi-component blend lures to Phase Two.” left out, “The tracking rate was used to direct the elimination process. Lures that were statistically less attractive than the best performing lure after Phase One trials were eliminated from subsequent trials.” left out, “Intensity was designed to identify lures that generated intensive or multiple visits by an individual or that elicited visits from multiple individuals.” left out
Structure (SMILES),"attractiveness relative to peanut butter standard and control (aggregated tracking rate) (wild, free-ranging rats [1])","trend of attraction with concentration (wild, free-ranging rats [1]; seven concentrations 10,000 to 0.01 ppm)","relative importance of variable (model averaging), Contact (wild, free-ranging rats [2])","relative importance of variable (model averaging), Marking (wild, free-ranging rats [2])","relative importance of variable (model averaging), Visitation (wild, free-ranging rats [2])","relative importance of variable (model averaging), Intensity (wild, free-ranging rats [3])","tracking rate (wild, free-ranging rats [4]; 10 sites, n=30 per lure, two nights, summer months)","performance versus top performing lure CF (binomial test) (wild, free-ranging rats [4])"
"Cc1nccnc1C [E, 2,3-dimethylpyrazine]",less attractive than the peanut butter standard and the control,,,,,,,
"CC(=O)OCCC(C)C [G, Isopentyl acetate]",less attractive than the peanut butter standard and the control,no trend,,,,,,
"CCC(C)COC(C)=O (stereo not drawn) [I, 2-methylbutyl acetate]",more attractive than the peanut butter standard,,0.48,0.95,0.84,0.88,,
"Cc1nc(C)c(C)nc1C [H, Tetramethylpyrazine]",less attractive than the peanut butter standard but more attractive than the control,,,,,,,
"CC(C)CC(=O)O [D, Isopentanoic acid]",less attractive than the peanut butter standard and the control,,,,,,,
"CC(=O)C(C)O (stereo not drawn) [C, acetoin]",more attractive than the peanut butter standard,,0.50,0.96,0.58,0.94,0.20,
"CC(=O)OCC(C)C [F, isobutyl acetate]",more attractive than the peanut butter standard,,0.78,0.987,0.70,0.86,,statistically weaker
"CC(C)CCO [A, isoamyl alcohol]",more attractive than the peanut butter standard,,0.68,0.95,0.69,0.85,,
"CCCCCCO [B, 1-hexanol]",more attractive than the peanut butter standard,,0.50,0.95,0.90,0.89,,statistically weaker
